Source: PMC7177833, “2-Aminopyridine Analogs Inhibit Both Enzymes of the Glyoxylate Shunt in Pseudomonas aeruginosa” (International Journal of Molecular Sciences, 2020)
Values after ≈ are worked out from the molar mass of the structure shown. Like-named read-outs stand apart in the source and are kept apart here.

Experiments:
[1] = Metabolic stability in rat liver microsomes; format: in vitro ADME; conditions: RLM; for Clh, int (predicted hepatic clearance): scaled; for Clh (predicted in vivo hepatic clearance): well-stirred model; for half-life at 0.5 µM / microsomal CLint at 0.5 µM: rat, pooled rat liver microsomes, pH 7.4
Description: (§1) The metabolic stability of the test compounds was measured following incubation with liver microsomes from humans (BioIVT, lot no. IHG; West Sussex, UK) and rats (BD Gentest, lot no. 60614; BD Biosciences, Milan, Italy). Verapamil and dextromethorphan were used as positive controls. An automated incubation procedure was performed using the RSP Freedom Evo liquid dispensing and incubation system (TECAN, Milan, Italy). Five microliters of 50 µM test compound or positive control were added to 445 µL of microsomal suspension in 96 deep-well plates. The microsomal preparation comprised 0.56 mg/mL of pooled and homogenized liver microsomes suspended in 50 mM potassium phosphate buffer, pH 7.4. After 5 min at 37 °C, the reactions were initiated by adding 50 µL of prewarmed NADPH regenerating buffer to each sample. The regenerating buffer comprised a 2% NaHCO3 solution containing 1.7 mg NADP, 7.8 mg glucose-6-phosphate, and 6 units of glucose-6-phosphate dehydrogenase per mL. The samples were incubated at 37 °C, and 50 µL aliquots were withdrawn after 0, 3, 10, 15, 30, and 45 min and quenched in 150 µL acetonitrile. […] The analytical column was a Synergi “Max-RP” reverse phase C12 with TMS endcapping (30 mm × 2 mm, 4 µm particle size) (Phenomenex, Inc., Bologna, Italy). The column temperature was maintained at 60 °C. […] Analytes were quantified in multiple reaction-monitoring mode. Peak areas were integrated using Integrator Software from Agilent (Agilent Technologies, Milan, Italy) and were divided by the peak areas of the internal standard. The percentage of parent compound remaining was calculated by normalizing the peak area ratio of the parent compound to that of the internal standard at time 0. The half-lives of compound metabolism were derived from the linear portion of the slope of ln percent parent compound vs time. Intrinsic clearance in liver microsomes was estimated from: (1) Clint=k×(V/M) (2) Clh, int=(Clint (×1st Scaling factor)×2^ndScaling factor) (3) Clh=(Q×Clh, int)/(Q+Clh, int).
(§2) Here, k is the rate of depletion of the parent compound ([…]), V is the volume of the reaction mixture in mL, and M is the concentration of microsomal protein (in mg/mL). The amounts of protein in the incubations were scaled relative to the average liver- and body-mass of each species to obtain intrinsic hepatic clearance (Clh, int, in […]) (Table S3). These scaling factors were used along with the average hepatic blood flow (Q, in […]) of each species to obtain in vivo correlations (Clh, in mL/min/kg) using the well-stirred model.

[2] = Metabolic stability in human liver microsomes; format: in vitro ADME; conditions: HLM; for Clh, int (predicted hepatic clearance): scaled; for Clh (predicted in vivo hepatic clearance): well-stirred model; for half-life at 0.5 µM / microsomal CLint at 0.5 µM: human, pooled human liver microsomes, pH 7.4
Description: as §1, §2

P. aeruginosa PAO1 = experiment: Antibacterial growth assay (OD600, 18 h) in LB or M9-acetate; format: cell-based; conditions: Pseudomonas aeruginosa; for inhibition at 200 µM: final optical density; for MIC: PAO1, MIC = lowest concentration inhibiting >75% of growth
Description: Growth assays were carried out using clear, U-bottom, sterile 96-well plates (Thermo Fisher Scientific, Bishop’s Stortford, UK). P. aeruginosa PAO1 overnight cultures were diluted to a starting OD600 of 0.05 in LB medium or M9 medium supplemented with 0.5% acetate. The test compounds were added to the indicated final concentrations, and the plates were covered with gas-permeable adhesive seals (Scientific Laboratory Supplies, Nottingham, UK). Assay controls included 1% DMSO, a positive antibiotic control (ciprofloxacin, 1 µg/mL), and medium-only wells as a control for background absorbance. […]

[3] = target: T1, MSPa (malate synthase G from P. aeruginosa) (Pseudomonas aeruginosa, UniProt Q9I636); experiment: Inhibition of purified MSPa enzymatic activity; format: biochemical; conditions: for inhibition at 75 µM: read-out: Enzyme Inhibition (%) at 75 µM MSPa
T1 construct: made in house
Description: The enzymatic activity of purified ICLPa and MSPa was assayed essentially as previously described. Compounds were added to the reaction mixtures (minus substrates) and incubated for 5 min at 37 °C. The enzyme concentration in the reaction mixtures was 170 nM for ICL and 25 nM for MS (based on the concentration of the monomer in each case). […] The reactions were initiated by the addition of pH-adjusted substrates, and the initial rates were recorded as A324 nm (for ICLPa) and A412 nm (for MSPa) using a Biospectrometer (Eppendorf, Stevenage, UK). Substrate turnover was calculated from the molar extinction coefficient of the assay products: Glyoxylate-phenylhydrazone (16,800/M/cm) for ICLPa and 2-nitro-5-thiobenzoic acid (14,150/M/cm) for MSPa.
All data fitting was performed with GraphPad Prism version 7.04 (GraphPad Software, Inc., La Jolla, CA, USA). The solid lines are the result of fitting the data to the equations denoted in relevant experimental sections. IC50 values were determined by a nonlinear fit using the equation for sigmoidal dose-response with variable slope. In all graphs, unless otherwise stated, the data points are the mean of experimental triplicates, and all error bars correspond to ± standard deviation.

[4] = PAO1, LB medium, read-out: PAO1 Growth Inhibition (%) at 200 µM LB
[5] = PAO1, M9-acetate medium, read-out: PAO1 Growth Inhibition (%) at 200 µM M9ac
[6] = M9 medium with 0.5% acetate, read-out: MIC M9ac

T1 sequence (Q9I636 whole entry): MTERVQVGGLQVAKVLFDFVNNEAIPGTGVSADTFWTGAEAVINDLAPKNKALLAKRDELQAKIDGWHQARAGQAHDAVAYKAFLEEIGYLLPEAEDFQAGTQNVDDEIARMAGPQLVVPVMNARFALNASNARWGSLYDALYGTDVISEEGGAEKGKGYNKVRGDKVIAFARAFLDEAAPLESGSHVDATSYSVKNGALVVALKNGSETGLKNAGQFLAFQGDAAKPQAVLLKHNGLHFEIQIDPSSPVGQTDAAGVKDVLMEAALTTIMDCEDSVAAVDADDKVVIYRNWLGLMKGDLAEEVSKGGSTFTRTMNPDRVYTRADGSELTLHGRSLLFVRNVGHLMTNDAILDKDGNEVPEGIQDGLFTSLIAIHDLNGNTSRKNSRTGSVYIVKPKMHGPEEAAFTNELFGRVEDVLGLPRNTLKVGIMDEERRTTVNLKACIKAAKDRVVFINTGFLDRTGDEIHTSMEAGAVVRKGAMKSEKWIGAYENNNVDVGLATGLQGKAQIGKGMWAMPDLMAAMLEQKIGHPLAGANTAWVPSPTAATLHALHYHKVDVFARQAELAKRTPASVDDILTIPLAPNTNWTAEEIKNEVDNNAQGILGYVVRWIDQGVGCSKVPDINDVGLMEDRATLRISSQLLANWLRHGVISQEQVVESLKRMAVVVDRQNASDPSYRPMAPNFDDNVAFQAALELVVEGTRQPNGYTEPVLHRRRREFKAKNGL

Structure (SMILES): Nc1cc(Cl)ccn1 [Compound 2-AP, 2-amino-4-chloropyridine, reference compound]
- Clh, int (predicted hepatic clearance) [1]: 14.63 mL/min/kg
- Clh (predicted in vivo hepatic clearance) [1]: 12.48 mL/min/kg
- half-life at 0.5 µM [1]: 3.66 h
- microsomal CLint at 0.5 µM [1]: 6.33 µL/min/mg
- Clh, int (predicted hepatic clearance) [2]: 34.33 mL/min/kg
- Clh (predicted in vivo hepatic clearance) [2]: 12.91 mL/min/kg
- half-life at 0.5 µM [2]: 0.911 h
- microsomal CLint at 0.5 µM [2]: 25.4 µL/min/mg
- inhibition at 200 µM (P. aeruginosa PAO1; [4]): 0%
- inhibition at 200 µM (P. aeruginosa PAO1; [5]): 8%
- MIC (P. aeruginosa PAO1; LB medium, read-out: MIC LB): > 200 µM
- MIC (P. aeruginosa PAO1; [6]): > 200 µM
- IC50 [3]: > 75 µM
- inhibition at 75 µM ([3]; 75 µM compound): 18.2%

Structure (SMILES): CC(C)(C)OC(=O)/N=C(\NC(=O)OC(C)(C)C)Nc1cc(Cl)ccn1 [SB002]
- Clh, int (predicted hepatic clearance) [1]: 62.99 mL/min/kg
- Clh (predicted in vivo hepatic clearance) [1]: 36.18 mL/min/kg
- half-life at 0.5 µM [1]: 0.85 h
- microsomal CLint at 0.5 µM [1]: 27.3 µL/min/mg
- T1/2 [2]: 1.342 h
- Clh, int (predicted hepatic clearance) [2]: 23.31 mL/min/kg
- Clh (predicted in vivo hepatic clearance) [2]: 10.96 mL/min/kg
- half-life at 0.5 µM [2]: 1.35 h
- microsomal CLint at 0.5 µM [2]: 17.3 µL/min/mg
- inhibition at 200 µM (P. aeruginosa PAO1; [4]): 0%
- inhibition at 200 µM (P. aeruginosa PAO1; [5]): 100%
- MIC (P. aeruginosa PAO1; LB medium, read-out: MIC LB): > 200 µM
- MIC (P. aeruginosa PAO1; [6]): 1.6 µM (≈ 0.593 µg/mL)
- IC50 [3]: 4.5 µM
- Enzyme Inhibition (%) at 75 µM MSPa ([3]; 75 µM compound): 94.5%
- inhibition at 75 µM ([3]; 75 µM compound): > 90%

Structure (SMILES): CC(C)(C)OC(=O)/N=C(\NC(=O)OC(C)(C)C)Nc1cc(C#N)ccn1 [SB023]
- Clh, int (predicted hepatic clearance) [1]: 124.58 mL/min/kg
- Clh (predicted in vivo hepatic clearance) [1]: 50.53 mL/min/kg
- half-life at 0.5 µM [1]: 0.43 h
- microsomal CLint at 0.5 µM [1]: 53.9 µL/min/mg
- T1/2 [2]: 1.214 h
- Clh, int (predicted hepatic clearance) [2]: 25.75 mL/min/kg
- Clh (predicted in vivo hepatic clearance) [2]: 11.48 mL/min/kg
- half-life at 0.5 µM [2]: 1.2 h
- microsomal CLint at 0.5 µM [2]: 19.1 µL/min/mg
- inhibition at 200 µM (P. aeruginosa PAO1; [4]): 0%
- inhibition at 200 µM (P. aeruginosa PAO1; [5]): 97%
- MIC (P. aeruginosa PAO1; LB medium, read-out: MIC LB): > 200 µM
- MIC (P. aeruginosa PAO1; [6]): 13.5 µM (≈ 4.88 µg/mL)
- IC50 [3]: 14.5 µM
- inhibition at 75 µM ([3]; 75 µM compound): 90.4%
